Entries after “also recorded” stand apart in the source; their conditions may differ.
Tested on: Iba1+CD11b+ double positive microglia
Assay: Immunohistochemistry analysis on microglia and leukocytes markers in MCAO brains
Type: in vivo, rats
Settings: 10 mg/kg, day 7, brain areas CA1, CPu, M1 and S1, vs MCAO or vehicle groups
Procedure: The animals were anaesthetized with isoflurane (RWD Life Science), perfused and fixed with 4% PFA (Sinopharm Chemical Reagent). The brain tissues were further soaked in 4% PFA […] at 4° C. overnight and then treated with a gradient of sucrose solutions (20-30%, Sinopharm Chemical Reagent) before being embedded with OCT (Leica) and frozen at −80° C. For immunofluorescence staining, the brain slices from primary somatosensory cortex (S1), primary motor cortex (M1), field CA1 of hippocampus (CA1) and caudate putamen (striatum, CPu) were heated for 30 min and then washed with 0.01 M PBS (pH=7.2-7.4, 5 min×3). After washing, the sections were blocked with 0.3% TritonX-100 (Solarbio) in 10% sheep serum (Solarbio) at RT for 1 h. Following removal of the blocking solution, the brain sections were incubated with primary antibodies Iba1 (Proteintech, Cat.10904-1-AP) and CD11b (Thermo Fisher, Cat. MA5-17857) overnight at 4° C. Following 3 washes with 0.01 M PBS (5 min each), the sections were incubated with Backlight plus secondary antibody (Abcam, Cat. ab150113; Cat.ab150080) at RT for 2 h. After 3 washes, the nuclei were stained with 4′, 6-diamidino-2-phenylindole (DAPI, Beyotime Biotech, Cat. C1006). […] The number of Iba1^+CD11b^+ double positive microglia were analyzed by Image J V1.8.0. […]

COC(=O)C1=CNC=C(C(=O)OC)C1c1ccc(F)c(C(F)(F)F)c1 [Compound 103, Dimethyl 4-(4-fluoro-3-(trifluoromethyl)phenyl)-1,4-dihydropyridine-3,5-dicarboxylate]
number of Iba1+CD11b+ double positive activated microglia: significantly reduced; also recorded: effectively reduced
